Measurements: patent US7858635B2 (priority 2005, dated 2010)
Read-outs that look alike come from different tables or passages of the source.

Tests used:
M1 muscarinic receptor = molecular target: T1, M1 muscarinic receptor (Homo sapiens, UniProt P11229); assay: Functional mobilization of intracellular calcium (FLIPR, Fluo-3), M1-CHO cells; type: cell-based; conditions: for Emax: 100% efficacy is the maximum response obtained with the Carbachol control, read-out: M1 Efficacy
T1 construct: expressed in transfected cells; host or cells: CHO cells (M1-CHO, under zeocin and G418 selection)
T1 sequence (P11229 1-460): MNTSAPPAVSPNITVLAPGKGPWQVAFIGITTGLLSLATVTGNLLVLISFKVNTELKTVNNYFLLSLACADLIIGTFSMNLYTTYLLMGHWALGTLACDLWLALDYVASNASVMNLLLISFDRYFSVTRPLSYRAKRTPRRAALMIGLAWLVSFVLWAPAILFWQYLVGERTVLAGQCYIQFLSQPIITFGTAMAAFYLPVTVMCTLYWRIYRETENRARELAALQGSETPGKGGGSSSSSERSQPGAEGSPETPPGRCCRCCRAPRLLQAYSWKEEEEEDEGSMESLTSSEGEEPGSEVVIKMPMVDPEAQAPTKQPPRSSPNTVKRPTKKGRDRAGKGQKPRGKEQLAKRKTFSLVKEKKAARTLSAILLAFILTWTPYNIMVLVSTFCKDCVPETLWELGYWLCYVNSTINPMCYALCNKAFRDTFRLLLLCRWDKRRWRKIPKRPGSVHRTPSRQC
Method in brief: (§1)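 Fluo-3 read-out, ex 488/em 540 nm, 60 sec on FLIPR 3. For agonist mode, compound added directly; for inhibition, 15 min compound pre-incubation before carbachol at EC80 (added as a 3× solution), or co-application. Buffer pH 7.4 with 1 mM probenecid; DMSO 0.5%.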

M4 muscarinic receptor = molecular target: T2, M4 muscarinic receptor (Homo sapiens, UniProt P08173); assay: Functional mobilization of intracellular calcium (FLIPR, Fluo-3), M4-CHO cells; type: cell-based; conditions: for Emax: 100% efficacy is the maximum response obtained with the Carbachol control, read-out: M4 Efficacy
T2 construct: expressed in transfected cells; host or cells: CHO cells (M4-CHO, under puromycin, zeocin and blasticidin selection)
T2 sequence (P08173 1-479): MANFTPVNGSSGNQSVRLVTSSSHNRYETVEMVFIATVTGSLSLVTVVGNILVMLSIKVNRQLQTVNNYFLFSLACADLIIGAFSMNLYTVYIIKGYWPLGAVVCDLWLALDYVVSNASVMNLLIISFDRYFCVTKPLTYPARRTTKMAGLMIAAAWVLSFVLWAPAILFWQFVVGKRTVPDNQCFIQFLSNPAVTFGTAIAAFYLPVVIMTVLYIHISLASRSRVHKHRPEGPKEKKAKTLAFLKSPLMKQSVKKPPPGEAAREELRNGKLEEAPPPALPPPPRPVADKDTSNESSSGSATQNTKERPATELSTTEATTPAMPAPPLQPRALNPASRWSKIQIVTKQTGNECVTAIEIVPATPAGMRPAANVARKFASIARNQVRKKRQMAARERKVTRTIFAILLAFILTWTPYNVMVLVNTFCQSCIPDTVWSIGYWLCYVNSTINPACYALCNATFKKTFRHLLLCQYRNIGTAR
Method in brief: as §1

[1] = compound nos. 1-454, M1-CHO cells, calcium mobilization
[2] = compound nos. 1-454, M4-CHO cells, calcium mobilization

Row | SMILES | Emax (M1 muscarinic receptor; compound nos. 1-454) | M1 Activity (M1 muscarinic receptor; [1]) | Emax (M4 muscarinic receptor; compound nos. 1-454) | M4 Activity (M4 muscarinic receptor; [2]) | M1 Activity (M1 muscarinic receptor; compound nos. 1-454) | M4 Activity (M4 muscarinic receptor; compound nos. 1-454) | Emax (M1 muscarinic receptor; compound nos. 455-509) | M1 Activity (M1 muscarinic receptor; compounds 455-509) | Emax (M4 muscarinic receptor; compound nos. 455-509) | M4 Activity (M4 muscarinic receptor; compounds 455-509)
1 | CCOC(=O)N1CCC(N2CCC3(CC2)CN(C(C)=O)c2ccc(-c4ccccc4)cc23)CC1 [compound 126] | < 65% | +++ (activity was measured to be less than or equal to 0.7 μM) | < 55% | + (activity was measured to be greater than or equal to 4.0 μM) | – | – | – | – | – | –
2 | Cc1ccc2c(c1)C1(CCN(C3CC4CCC(C4)C3)CC1)CN2 (stereo not shown) [compound 397] | 65 to 85% | – | < 55% | – | ++ (activity was measured to be between 0.7 μM and 3.0 μM) | + (activity was measured to be greater than or equal to 4.0 μM) | – | – | – | –
3 | CC(=O)N1CC2(CCN(CC3CCN(C(=O)OC(C)C)CC3)CC2)c2cc(C)ccc21 [compound 404] | < 65% | – | < 55% | – | ++ (activity was measured to be between 0.7 μM and 3.0 μM) | + (activity was measured to be greater than or equal to 4.0 μM) | – | – | – | –
4 | O=C(O[C@@H]1CCOC1)N1CC2(CCN(C3CC4CCC(C3)N4C(=O)O[C@@H]3CCOC3)CC2)c2cc(F)ccc21 (stereo partly shown) [compound 243] | 65 to 85% | +++ (activity was measured to be less than or equal to 0.7 μM) | 55 to 70% | + (activity was measured to be greater than or equal to 4.0 μM) | – | – | – | – | – | –
5 | Cc1ccc(N2CCC(N3CCC4(CC3)CN(C(=O)N(C)C)c3ccc(F)cc34)CC2)nn1 [compound 462] | – | – | – | – | – | – | 25 to 100% | + (activity was measured to be greater than or equal to 5.0 μM) | < 25% | ++ (activity was measured to be between 2.0 μM and 5.0 μM)
6 | COCCOC(=O)N1CC2(CCN(C3CC4CCC(C3)N4C(=O)OC(C)C)CC2)c2cc(F)ccc21 (stereo not shown) [compound 422] | < 65% | – | < 55% | – | +++ (activity was measured to be less than or equal to 0.7 μM) | + (activity was measured to be greater than or equal to 4.0 μM) | – | – | – | –
7 | Fc1ccc2c(c1)C1(CCN(C3CCCCC3)CC1)CO2 [compound 152] | 65 to 85% | ++ (activity was measured to be between 0.7 μM and 3.0 μM) | > 70% | + (activity was measured to be greater than or equal to 4.0 μM) | – | – | – | – | – | –
8 | CCOC(=O)N1C2CCC1CC(N1CCC3(CC1)COc1ccc(F)cc13)C2 (stereo not shown) [compound 42] | > 85% | +++ (activity was measured to be less than or equal to 0.7 μM) | > 70% | ++ (activity was measured to be between 0.1 μM and 4.0 μM) | – | – | – | – | – | –
9 | CCOC(=O)N1C2CCC1CC(N1CCC3(CC1)CN(S(C)(=O)=O)c1ccc(F)cc13)C2 (stereo not shown) [compound 103] | 65 to 85% | +++ (activity was measured to be less than or equal to 0.7 μM) | < 55% | ++ (activity was measured to be between 0.1 μM and 4.0 μM) | – | – | – | – | – | –
10 | CC(C)OC(=O)N1C2CCC1CC(N1CCC3(CC1)C(=O)Nc1ccccc13)C2 (stereo not shown) [compound 139] | > 85% | +++ (activity was measured to be less than or equal to 0.7 μM) | > 70% | +++ (activity was measured to be less than or equal to 0.1 μM) | – | – | – | – | – | –
11 | COC(=O)N1C2CCC1CC(N1CCC3(CC1)CN(C1CCN(c4nc(C)ns4)CC1)c1ccccc13)C2 (stereo not shown) [compound 490] | – | – | – | – | – | – | > 100% | ++ (activity was measured to be between 2.0 μM and 5.0 μM) | 25 to 100% | ++ (activity was measured to be between 2.0 μM and 5.0 μM)
12 | CCOC(=O)N1CCC(N2CCC3(CC2)CN(C(=O)OC(C)C)c2ccc(F)cc23)CC1 [compound 145] | > 85% | +++ (activity was measured to be less than or equal to 0.7 μM) | > 70% | + (activity was measured to be greater than or equal to 4.0 μM) | – | – | – | – | – | –
13 | O=C(OC1CCCC1)N1C2CCC1CC(N1CCC3(CC1)C(=O)Nc1ccccc13)C2 (stereo not shown) [compound 271] | 65 to 85% | +++ (activity was measured to be less than or equal to 0.7 μM) | < 55% | +++ (activity was measured to be less than or equal to 0.1 μM) | – | – | – | – | – | –
